This note sets out measurements from ChEMBL document CHEMBL1131773, “Synthesis and structure-activity relationships of new non-steroidal progesterone receptor ligands” (Bioorg Med Chem Lett, 1999).

The target in this assay is T1, Progesterone receptor (Homo sapiens) (UniProt P06401).
T1 sequence (whole entry): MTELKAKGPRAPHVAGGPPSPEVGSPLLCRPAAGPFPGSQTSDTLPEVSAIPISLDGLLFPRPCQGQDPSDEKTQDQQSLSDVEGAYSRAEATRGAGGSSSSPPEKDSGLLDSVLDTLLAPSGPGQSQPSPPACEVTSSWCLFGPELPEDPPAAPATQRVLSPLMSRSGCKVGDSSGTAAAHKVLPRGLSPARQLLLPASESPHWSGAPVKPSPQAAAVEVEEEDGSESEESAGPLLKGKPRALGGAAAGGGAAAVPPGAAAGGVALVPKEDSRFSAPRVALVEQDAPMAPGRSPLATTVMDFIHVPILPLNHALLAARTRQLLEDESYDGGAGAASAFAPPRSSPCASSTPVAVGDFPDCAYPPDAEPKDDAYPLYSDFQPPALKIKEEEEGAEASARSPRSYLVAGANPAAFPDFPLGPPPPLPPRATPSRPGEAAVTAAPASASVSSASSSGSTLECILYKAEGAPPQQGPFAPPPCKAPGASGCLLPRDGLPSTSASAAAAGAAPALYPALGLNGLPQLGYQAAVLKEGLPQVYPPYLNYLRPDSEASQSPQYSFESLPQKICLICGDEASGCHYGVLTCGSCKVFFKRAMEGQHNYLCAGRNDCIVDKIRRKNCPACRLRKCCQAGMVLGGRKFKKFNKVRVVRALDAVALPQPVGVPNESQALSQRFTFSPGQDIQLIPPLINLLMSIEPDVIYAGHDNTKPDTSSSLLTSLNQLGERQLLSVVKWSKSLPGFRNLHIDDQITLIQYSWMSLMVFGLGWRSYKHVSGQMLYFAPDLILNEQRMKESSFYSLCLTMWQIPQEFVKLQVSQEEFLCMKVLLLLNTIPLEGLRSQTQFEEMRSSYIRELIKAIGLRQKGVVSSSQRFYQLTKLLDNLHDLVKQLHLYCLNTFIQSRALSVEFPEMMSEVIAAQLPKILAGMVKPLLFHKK
The assay can be described thus: Relative Binding affinity(RBA) to human progesterone receptor(PR) compared to PF1092A; (RBA= IC50 of PF1092A/ IC50 of test compound at human PR).

Turning to `CC(=O)O[C@H]1CC=C2C=C3OC(=O)C(C)=C3C[C@]2(C)[C@H]1C`, the relative binding affinity (RBA) was found to be 0.8.

Consider `CCC1=C2C[C@@]3(C)C(=CC[C@H](OC(C)=O)[C@@H]3C)C=C2OC1=O`, for which the relative binding affinity (RBA) stood at 0.2.

For `CC(=O)O[C@H]1[C@H](C)C=C2C=C3OC(=O)C(C)=C3C[C@]2(C)[C@H]1C`, the relative binding affinity (RBA) was found to be 1.6.

`CC(=O)O[C@H]1CC=C2C=C3OC(=O)C=C3C[C@]2(C)[C@H]1C` registered a relative binding affinity (RBA) of 1.2.

As to `CC(=O)O[C@H]1CC=C2C=C3OC(=O)C(C)=C3[C@H](C)[C@]2(C)[C@H]1C`, the relative binding affinity (RBA) came to 0.8.

`CC(=O)O[C@H]1CC=C2C(C)=C3OC(=O)C(C)=C3C[C@]2(C)[C@H]1C` gave a relative binding affinity (RBA) of 0.07.

Consider `CC(=O)O[C@H]1[C@@H](O)C=C2C=C3OC(=O)C(C)=C3C[C@]2(C)[C@H]1C`, for which the relative binding affinity (RBA) came to 1.

`CO[C@H]1[C@@H](OC(C)=O)CC=C2C=C3OC(=O)C(C)=C3C[C@@]21C` returned a relative binding affinity (RBA) of 0.7.

Turning to `CC(=O)O[C@H]1CC=C2C=C3OC(=O)C(C)=C3C[C@]2(C)C1`, the relative binding affinity (RBA) was 0.08.
